Reference: ChEMBL document CHEMBL4229491, “Design, synthesis and evaluation of novel N-phenylbutanamide derivatives as KCNQ openers for the treatment of epilepsy” (Bioorg Med Chem Lett, 2018)

Key:
[1] = target: T1, Potassium voltage-gated channel subfamily KQT member 2 (Homo sapiens, UniProt O43526); experiment: Channel opening activity at KCNQ2 (unknown origin) expressed in CHO cells after 10 mins by atomic absorption spectrophotometry-based Rb+ flow assay; format: cell-based
[2] = target: T1, Potassium voltage-gated channel subfamily KQT member 2; experiment: Channel opening activity at KCNQ2 (unknown origin) expressed in CHO cells assessed as change in half activation potential at 10 uM by electrophysiological patch-clamp test; format: cell-based
[3] = tested on: Mus musculus; experiment: Anticonvulsant activity in maximal electroshock induced Kunming mouse assessed as epilepsy incidence at 25 mg/kg, ip measured after 30 mins; format: functional
[4] = tested on: Rattus norvegicus; experiment: Neurotoxicity in Sprague-Dawley rat at 25 mg/kg, ip measured after 30 mins by rotating-rod test; format: toxicity, organism-based; conditions: in vivo, 0.5 h
[5] = target: T1, Potassium voltage-gated channel subfamily KQT member 2; experiment: Channel opening activity at KCNQ2 (unknown origin) expressed in CHO cells assessed as conductivity (I/I0 ratio) at 10 uM by electrophysiological patch-clamp test; format: cell-based
[6] = target: T1, Potassium voltage-gated channel subfamily KQT member 2; experiment: Channel opening activity at KCNQ2 (unknown origin) expressed in CHO cells at 10 uM incubated for 20 mins in dark measured every 2 secs for 10 secs by fluorescence-based thallium influx assay relative to control; format: cell-based
[7] = Ratio of drug uptake in Kunming mouse brain to plasma at 15 mg/kg, ig measured after 2 hrs by LC/MS/MS analysis; format: ADME, organism-based; conditions: po, read-out: BPR
[8] = tested on: Rattus norvegicus; experiment: Neurotoxicity in Sprague-Dawley rat at 3 mg/kg, ip measured after 30 mins by rotating-rod test; format: toxicity, organism-based; conditions: in vivo, 0.5 h
[9] = tested on: Mus musculus; experiment: Anticonvulsant activity in maximal electroshock induced Kunming mouse assessed as epilepsy incidence at 5 mg/kg, ip measured after 30 mins; format: functional
[10] = Drug uptake in Kunming mouse plasma at 15 mg/kg, ig measured after 2 hrs by LC/MS/MS analysis; format: ADME, organism-based; conditions: po
[11] = tested on: Mus musculus; experiment: Anticonvulsant activity in ip dosed maximal electroshock induced Kunming mouse assessed as suppression of hind legs rigidity measured after 30 mins; format: functional, organism-based
[12] = Drug uptake in Kunming mouse plasma at 1.5 mg/kg, iv measured after 30 mins by LC/MS/MS analysis; format: ADME, organism-based
[13] = Drug uptake in Kunming mouse brain at 15 mg/kg, ig measured after 5 mins by LC/MS/MS analysis; format: ADME, organism-based; conditions: po, read-out: Drug uptake
[14] = Ratio of drug uptake in Kunming mouse brain to plasma at 1.5 mg/kg, iv measured after 2 hrs by LC/MS/MS analysis; format: ADME, organism-based; conditions: read-out: BPR
[15] = tested on: Mus musculus; experiment: Anticonvulsant activity in maximal electroshock induced Kunming mouse assessed as epilepsy incidence at 3 mg/kg, ip measured after 30 mins; format: functional
[16] = tested on: Rattus norvegicus; experiment: Neurotoxicity in Sprague-Dawley rat at 1 mg/kg, ip measured after 30 mins by rotating-rod test; format: toxicity, organism-based; conditions: in vivo, 0.5 h
[17] = Apparent volume of distribution in Sprague-Dawley rat at 1 mg/kg, iv by LC/MS/MS analysis; format: ADME, organism-based; conditions: in vivo, read-out: Vz
[18] = Drug uptake in Kunming mouse plasma at 1.5 mg/kg, iv measured after 5 mins by LC/MS/MS analysis; format: ADME, organism-based
[19] = Clearance in Sprague-Dawley rat at 1 mg/kg, iv by LC/MS/MS analysis; format: ADME, organism-based; conditions: in vivo
[20] = Ratio of drug uptake in Kunming mouse brain to plasma at 1.5 mg/kg, iv measured after 5 mins by LC/MS/MS analysis; format: ADME, organism-based; conditions: read-out: BPR
[21] = tested on: Rattus norvegicus; experiment: Neurotoxicity in Sprague-Dawley rat at 0.3 mg/kg, ip measured after 30 mins by rotating-rod test; format: toxicity, organism-based; conditions: in vivo, 0.5 h
[22] = AUClast in Sprague-Dawley rat at 1 mg/kg, iv by LC/MS/MS analysis; format: ADME, organism-based; parameters: dose 1 mg/kg, route intravenous, time 0 - last; conditions: in vivo
[23] = tested on: Rattus norvegicus; experiment: Neurotoxicity in Sprague-Dawley rat at 5 mg/kg, ip measured after 30 mins by rotating-rod test; format: toxicity, organism-based; conditions: in vivo, 0.5 h
[24] = Drug uptake in Kunming mouse brain at 1.5 mg/kg, iv measured after 5 mins by LC/MS/MS analysis; format: ADME, organism-based; conditions: read-out: Drug uptake
[25] = Drug uptake in Kunming mouse brain at 15 mg/kg, ig measured after 30 mins by LC/MS/MS analysis; format: ADME, organism-based; conditions: po, read-out: Drug uptake
[26] = Drug uptake in Kunming mouse plasma at 1.5 mg/kg, iv measured after 2 hrs by LC/MS/MS analysis; format: ADME, organism-based
[27] = tested on: Mus musculus; experiment: Anticonvulsant activity in maximal electroshock induced Kunming mouse assessed as epilepsy incidence at 0.3 mg/kg, ip measured after 30 mins; format: functional
[28] = Drug uptake in Kunming mouse plasma at 15 mg/kg, ig measured after 5 mins by LC/MS/MS analysis; format: ADME, organism-based; conditions: po
[29] = Drug uptake in Kunming mouse brain at 1.5 mg/kg, iv measured after 2 hrs by LC/MS/MS analysis; format: ADME, organism-based; conditions: read-out: Drug uptake
[30] = target: T1, Potassium voltage-gated channel subfamily KQT member 2; experiment: Potency index, ratio of retigabine EC50 to compound EC50 for channel opening activity at KCNQ2 (unknown origin) expressed in CHO cells by atomic absorption spectrophotometry-based Rb+ flow assay; format: cell-based
[31] = Half life in Sprague-Dawley rat at 1 mg/kg, iv by LC/MS/MS analysis; format: ADME, organism-based; conditions: in vivo
[32] = Ratio of drug uptake in Kunming mouse brain to plasma at 15 mg/kg, ig measured after 5 mins by LC/MS/MS analysis; format: ADME, organism-based; conditions: po, read-out: BPR
[33] = Drug uptake in Kunming mouse plasma at 15 mg/kg, ig measured after 30 mins by LC/MS/MS analysis; format: ADME, organism-based; conditions: po
[34] = Drug uptake in Kunming mouse brain at 15 mg/kg, ig measured after 2 hrs by LC/MS/MS analysis; format: ADME, organism-based; conditions: po, read-out: Drug uptake
[35] = MRTlast in Sprague-Dawley rat at 1 mg/kg, iv by LC/MS/MS analysis; format: ADME, organism-based; conditions: in vivo
[36] = Ratio of drug uptake in Kunming mouse brain to plasma at 15 mg/kg, ig measured after 30 mins by LC/MS/MS analysis; format: ADME, organism-based; conditions: po, read-out: BPR
[37] = Ratio of drug uptake in Kunming mouse brain to plasma at 1.5 mg/kg, iv measured after 30 mins by LC/MS/MS analysis; format: ADME, organism-based; conditions: read-out: BPR
[38] = Drug uptake in Kunming mouse brain at 1.5 mg/kg, iv measured after 30 mins by LC/MS/MS analysis; format: ADME, organism-based; conditions: read-out: Drug uptake
[39] = Tmax in Sprague-Dawley rat at 1 mg/kg, iv by LC/MS/MS analysis; format: ADME, organism-based; conditions: in vivo
[40] = Cmax in Sprague-Dawley rat at 1 mg/kg, iv by LC/MS/MS analysis; format: ADME, organism-based; parameters: dose 1 mg/kg, route intravenous; conditions: in vivo
[41] = tested on: Mus musculus; experiment: Anticonvulsant activity in maximal electroshock induced Kunming mouse assessed as epilepsy incidence at 1 mg/kg, ip measured after 30 mins; format: functional

T1 sequence (O43526 whole entry): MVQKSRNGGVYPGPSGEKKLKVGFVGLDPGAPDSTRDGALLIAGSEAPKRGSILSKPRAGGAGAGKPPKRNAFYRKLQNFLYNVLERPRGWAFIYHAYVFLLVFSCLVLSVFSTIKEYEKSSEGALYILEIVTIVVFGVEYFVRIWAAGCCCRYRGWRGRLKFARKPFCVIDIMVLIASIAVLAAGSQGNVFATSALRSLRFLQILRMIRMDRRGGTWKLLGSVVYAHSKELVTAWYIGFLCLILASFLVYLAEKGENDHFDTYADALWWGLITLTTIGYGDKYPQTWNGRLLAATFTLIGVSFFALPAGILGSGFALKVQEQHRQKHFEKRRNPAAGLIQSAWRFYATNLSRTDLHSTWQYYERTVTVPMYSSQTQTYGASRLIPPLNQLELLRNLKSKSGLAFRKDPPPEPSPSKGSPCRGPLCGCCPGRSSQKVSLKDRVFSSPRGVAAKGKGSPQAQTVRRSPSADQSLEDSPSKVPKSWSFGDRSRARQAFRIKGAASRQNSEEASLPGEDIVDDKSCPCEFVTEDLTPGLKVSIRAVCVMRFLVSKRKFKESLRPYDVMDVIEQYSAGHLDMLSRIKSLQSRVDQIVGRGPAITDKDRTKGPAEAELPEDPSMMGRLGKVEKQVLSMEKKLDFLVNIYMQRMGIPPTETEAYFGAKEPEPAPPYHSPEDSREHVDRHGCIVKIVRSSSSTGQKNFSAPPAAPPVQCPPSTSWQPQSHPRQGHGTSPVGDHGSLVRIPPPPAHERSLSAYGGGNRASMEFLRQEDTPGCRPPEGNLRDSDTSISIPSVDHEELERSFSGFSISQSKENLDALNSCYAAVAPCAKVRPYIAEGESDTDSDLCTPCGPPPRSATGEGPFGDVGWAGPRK

Cc1ccc2c(c1)CCCCN2c1cc(C)c(NC(=O)CC(C)(C)C)c(C)c1
EC50 [1]: 0.04 µM

Cc1csc2c1CN(c1cc(C)c(NC(=O)CC(C)(C)C)c(C)c1)CC2
EC50 [1]: 0.3 µM

Cc1cc2c(s1)CN(c1cc(C)c(NC(=O)CC(C)(C)C)c(C)c1)CC2
EC50 [1]: 0.03 µM

Cc1cc(N2CCc3sc(C#N)cc3C2)cc(C)c1NC(=O)CC(C)(C)C
EC50 [1]: 0.29 µM

Cc1cc(N2CCCCc3cc(Cl)ccc32)cc(C)c1NC(=O)CC(C)(C)C
EC50 [1]: 0.14 µM

CCOC(=O)Nc1ccc(NCc2ccc(F)cc2)cc1N [EZOGABINE]
V1/2 [2]: 40 mV
Activity [3]: 15%
Activity [4]: 0%
Ratio [5]: 2.12

Cc1cc(N2CCn3cccc3C2)cc(C)c1NC(=O)CC(C)(C)C
EC50 [1]: 0.034 µM
V1/2 [2]: 46.1 mV
Activity [6]: 4.87%
Ratio [5]: 1.65

Cc1cc(N2CCc3cc(F)sc3C2)cc(C)c1NC(=O)CC(C)(C)C
EC50 [1]: 2.93 µM

Cc1cc(N2CCc3ccsc3C2)cc(C)c1NC(=O)CC(C)(C)C
EC50 [1]: 0.02 µM
V1/2 [2]: 53.3 mV
Activity [6]: 64.8%
Ratio [5]: 0.67

Cc1cc(N2CCc3sccc3C2)cc(C)c1NC(=O)CC(C)(C)C
Kp at 2 h [7]: 0.09
Activity [8]: 0%
Activity [9]: 20%
concentration at 2 h [10]: 52.9 ng/mL
EC50 [11]: 1.83 mg/kg
concentration at 0.5 h [12]: 137 ng/mL
concentration at 5 min [13]: 25 ng/g
Kp at 2 h [14]: 0.16
Activity [15]: 20%
Activity [16]: 0%
Vd [17]: 11.2 L/kg
concentration at 5 min [18]: 771 ng/mL
clearance [19]: 23.6 mL/min/kg
Kp at 5 min [20]: 0.18
Activity [21]: 0%
AUC(0-t) [22]: 687 ng·h/mL
Activity [23]: 0%
EC50 [1]: 0.02 µM
concentration at 5 min [24]: 140 ng/g
concentration at 0.5 h [25]: 30 ng/g
concentration at 2 h [26]: 7.85 ng/mL
Activity [27]: 70%
concentration at 5 min [28]: 201 ng/mL
concentration at 2 h [29]: 1.27 ng/g
V1/2 [2]: 66.2 mV
Ratio EC50 [30]: 17
half-life [31]: 5.49 h
Kp at 5 min [32]: 0.12
concentration at 0.5 h [33]: 243 ng/mL
concentration at 2 h [34]: 4.96 ng/g
MRT last [35]: 2.17 h
Kp at 0.5 h [36]: 0.12
Kp at 0.5 h [37]: 0.14
concentration at 0.5 h [38]: 19 ng/g
Activity [6]: 84.2%
Tmax [39]: 1.8 min
Cmax [40]: 1060 ng/mL
Ratio [5]: 1.63
Activity [41]: 90%

Cc1cc(N2CCc3sc(C(F)(F)F)cc3C2)cc(C)c1NC(=O)CC(C)(C)C
EC50 [1]: 0.12 µM

Cc1cc(N2CCCCc3cc(F)ccc32)cc(C)c1NC(=O)CC(C)(C)C
EC50 [1]: 0.25 µM

Cc1cc(N2CCCCc3cc(Br)ccc32)cc(C)c1NC(=O)CC(C)(C)C
EC50 [1]: 1.08 µM
